Measurements as given in ChEMBL document CHEMBL6127077, “Discovery and biological evaluation of 6-aryl-4-(3,4,5-trimethoxyphenyl)quinoline derivatives with promising antitumor activities as novel colchicine-binding site inhibitors” (Eur J Med Chem, 2024).
Calls of active or inactive are those of the source. The rule behind the calls is not given here.

What was measured:
SGC-7901 = assay: Antiproliferative activity against human SGC-7901 cells assessed as inhibition of cell growth incubated for 72 hrs by MTT assay; type: functional, cell-based; settings: SGC-7901, 72 h
Huh-7 [1] = assay: cells; settings: Homo sapiens, Huh-7, 72 h
Description: Antiproliferative activity against human Huh-7 cells assessed as inhibition of cell growth incubated for 72 hrs by MTT assay

MCF7 = assay: cells; settings: Homo sapiens, MCF7, 72 h
Description: Antiproliferative activity against human MCF7 cells assessed as inhibition of cell growth incubated for 72 hrs by MTT assay

[2] = Antiproliferative activity against human MCF7/ADM cells assessed as inhibition of cell growth incubated for 72 hrs by MTT assay; type: functional, cell-based
[3] = Cytotoxicity against human HUVEC cells incubated for 72 hrs by MTT assay; type: toxicity, cell-based
Huh-7 [4] = assay: Induction of cell cycle arrest in human Huh-7 cells assessed as accumulation of cells at G0/G1 phase at 60 nM incubated for 30 to 60 mins by RNase/PI staining based flow cytometry analysis (reference value: 55.08%); type: functional; settings: time 30-60 min
Huh-7 [5] = assay: Induction of cell cycle arrest in human Huh-7 cells assessed as accumulation of cells at G2M phase at 60 nM incubated for 30 to 60 mins by RNase/PI staining based flow cytometry analysis (reference value: 8.38%); type: functional; settings: time 30-60 min
Huh-7 [6] = assay: Induction of cell cycle arrest in human Huh-7 cells assessed as accumulation of cells at S-phase at 60 nM incubated for 30 to 60 mins by RNase/PI staining based flow cytometry analysis (reference value: 36.54%); type: functional; settings: time 30-60 min
Huh-7 [7] = assay: Induction of cell cycle arrest in human Huh-7 cells assessed as accumulation of cells at G0/G1 phase at 90 nM incubated for 30 to 60 mins by RNase/PI staining based flow cytometry analysis (reference value: 55.08%); type: functional; settings: time 30-60 min
Huh-7 [8] = assay: Induction of cell cycle arrest in human Huh-7 cells assessed as accumulation of cells at G2M phase at 90 nM incubated for 30 to 60 mins by RNase/PI staining based flow cytometry analysis (reference value: 8.38%); type: functional; settings: time 30-60 min
Huh-7 [9] = assay: Induction of cell cycle arrest in human Huh-7 cells assessed as accumulation of cells at S-phase at 90 nM incubated for 30 to 60 mins by RNase/PI staining based flow cytometry analysis (reference value: 36.54%); type: functional; settings: time 30-60 min
Huh-7 [10] = assay: Induction of cell cycle arrest in human Huh-7 cells assessed as accumulation of cells at G0/G1 phase at 120 nM incubated for 30 to 60 mins by RNase/PI staining based flow cytometry analysis (reference value: 55.08%); type: functional; settings: time 30-60 min
Huh-7 [11] = assay: Induction of cell cycle arrest in human Huh-7 cells assessed as accumulation of cells at G2M phase at 120 nM incubated for 30 to 60 mins by RNase/PI staining based flow cytometry analysis (reference value: 8.38%); type: functional; settings: time 30-60 min
Huh-7 [12] = assay: Induction of cell cycle arrest in human Huh-7 cells assessed as accumulation of cells at S-phase at 120 nM incubated for 30 to 60 mins by RNase/PI staining based flow cytometry analysis (reference value: 36.54%); type: functional; settings: time 30-60 min
Huh-7 [13] = assay: Induction of apoptosis in human Huh-7 cells assessed as viable cells at 60 nM incubated for 48 hrs by Annexin-V/PI staining based flow cytometry analysis (reference value: 94.8%); type: functional; settings: read-out: Activity
Huh-7 [14] = assay: Induction of apoptosis in human Huh-7 cells assessed as early apoptotic cells at 60 nM incubated for 48 hrs by Annexin-V/PI staining based flow cytometry analysis (reference value: 0.56%); type: functional
Huh-7 [15] = assay: Induction of apoptosis in human Huh-7 cells assessed as late apoptotic cells at 60 nM incubated for 48 hrs by Annexin-V/PI staining based flow cytometry analysis (reference value: 4.06%); type: functional
Huh-7 [16] = assay: Induction of apoptosis in human Huh-7 cells assessed as necrotic cells at 60 nM incubated for 48 hrs by Annexin-V/PI staining based flow cytometry analysis (reference value: 0.60%); type: functional
Huh-7 [17] = assay: Induction of apoptosis in human Huh-7 cells assessed as viable cells at 90 nM incubated for 48 hrs by Annexin-V/PI staining based flow cytometry analysis (reference value: 94.8%); type: functional; settings: read-out: Activity
Huh-7 [18] = assay: Induction of apoptosis in human Huh-7 cells assessed as early apoptotic cells at 90 nM incubated for 48 hrs by Annexin-V/PI staining based flow cytometry analysis (reference value: 0.56%); type: functional
Huh-7 [19] = assay: Induction of apoptosis in human Huh-7 cells assessed as late apoptotic cells at 90 nM incubated for 48 hrs by Annexin-V/PI staining based flow cytometry analysis (reference value: 4.06%); type: functional
Huh-7 [20] = assay: Induction of apoptosis in human Huh-7 cells assessed as necrotic cells at 90 nM incubated for 48 hrs by Annexin-V/PI staining based flow cytometry analysis (reference value: 0.60%); type: functional
Huh-7 [21] = assay: Induction of apoptosis in human Huh-7 cells assessed as viable cells at 120 nM incubated for 48 hrs by Annexin-V/PI staining based flow cytometry analysis (reference value: 94.8%); type: functional; settings: read-out: Activity
Huh-7 [22] = assay: Induction of apoptosis in human Huh-7 cells assessed as early apoptotic cells at 120 nM incubated for 48 hrs by Annexin-V/PI staining based flow cytometry analysis (reference value: 0.56%); type: functional
Huh-7 [23] = assay: Induction of apoptosis in human Huh-7 cells assessed as late apoptotic cells at 120 nM incubated for 48 hrs by Annexin-V/PI staining based flow cytometry analysis (reference value: 4.06%); type: functional
Huh-7 [24] = assay: Induction of apoptosis in human Huh-7 cells assessed as necrotic cells at 120 nM incubated for 48 hrs by Annexin-V/PI staining based flow cytometry analysis (reference value: 0.60%); type: functional
Tubulin (Homo sapiens) [25] = biological target: T1, Tubulin (Homo sapiens) (UniProt P68371+Q9H4B7+P0DPH7+P68366+Q13509+Q71U36+P04350+Q3ZCM7+P07437+P68363+Q9BQE3+Q6PEY2+Q13885+Q9BVA1+Q9BUF5); assay: Inhibition of tubulin polymerization (unknown origin) at 3 to 5 uM by infinite F500 microplate reader analysis; type: protein-complex assay; settings: dose 3-5 µM
Tubulin (Homo sapiens) [26] = biological target: T1, Tubulin (Homo sapiens); assay: Inhibition of tubulin polymerization (unknown origin) by infinite F500 microplate reader analysis; type: protein-complex assay; settings: dose 3-5 µM
Tubulin (Homo sapiens) [27] = biological target: T1, Tubulin (Homo sapiens); assay: Binding affinity to Tubulin (unknown origin) colchicine binding site assessed as reduction in colchicine-tubulin complex formation by Fluorescence based analysis; type: protein-complex assay; settings: dose 2-6 µM
Tubulin (Homo sapiens) [28] = biological target: T1, Tubulin (Homo sapiens); assay: Disruption of microtubule network in human Huh-7 cells assessed as shortened microtubule wrap around the nucleus incubated for 24 hrs by DAPI staining based microscopic analysis; type: cell-based; settings: dose 30-60 nM
Huh-7 [29] = assay: Antitumor activity against human Huh-7 cells xenografted in male BALB/c mouse at 15 mg/kg, ip administered every 2 days for 2 weeks; type: functional, organism-based
[30] = Toxicity in male BALB/c mouse assessed as body weight loss at 15 mg/kg, ip administered every 2 days for 2 weeks; type: organism-based; settings: in vivo, 336 h
[31] = Toxicity in male BALB/c mouse assessed as liver damage at 15 mg/kg, ip administered every 2 days for 2 weeks by H and E staining based analysis; type: organism-based; settings: in vivo, 336 h

In the case of `CCOc1ccc(-c2ccc3nccc(-c4cc(OC)c(OC)c(OC)c4)c3c2)cc1`, the IC50 (SGC-7901) is reported as 3.87 µM, the IC50 (Huh-7 [1]) is reported as 0.42 µM and the IC50 (MCF7) is reported as 3.11 µM.

With `COc1cc(-c2ccnc3ccc(-c4ccc(O)cc4)cc23)cc(OC)c1OC` the IC50 (SGC-7901) was 1.91 µM, the IC50 (Huh-7 [1]) was 0.32 µM and the IC50 (MCF7) was > 100 µM.

For `COc1cc(-c2ccnc3ccc(-c4ccsc4)cc23)cc(OC)c1OC`, the IC50 (SGC-7901) was 1.78 µM, the IC50 (Huh-7 [1]) was 0.27 µM and the IC50 (MCF7) was 2.24 µM.

Compound `COc1cccc(-c2ccc3nccc(-c4cc(OC)c(OC)c(OC)c4)c3c2)c1` has an IC50 (SGC-7901) of 7.83 µM, an IC50 (Huh-7 [1]) of 3.36 µM and an IC50 (MCF7) of 17.5 µM.

`COc1cc(-c2ccnc3ccc(-c4ccc(C)cc4)cc23)cc(OC)c1OC` showed an IC50 (SGC-7901) of 0.6 µM, an IC50 (Huh-7 [1]) of 1.15 µM and an IC50 (MCF7) of 1.36 µM.

In the case of `COc1cc(-c2ccnc3ccc(-c4ccc(C#N)cc4)cc23)cc(OC)c1OC`, the IC50 (SGC-7901) is reported as 7.33 µM, the IC50 (Huh-7 [1]) is reported as 3.41 µM and the IC50 (MCF7) is reported as > 100 µM.

`COc1cc(-c2ccnc3ccc(-c4ccc(Cl)cc4)cc23)cc(OC)c1OC` gave an IC50 (SGC-7901) of 12.1 µM, an IC50 (Huh-7 [1]) of 4.56 µM and an IC50 (MCF7) of 16.2 µM.

With `COc1cc(-c2ccnc3ccc(-c4cccc5[nH]ccc45)cc23)cc(OC)c1OC` the IC50 (SGC-7901) was 0.18 µM, the IC50 [2] was 0.52 µM and the IC50 at 72 h [3] was 5.82 µM. The Activity (Huh-7 [4]) was 53.2%, the Activity (Huh-7 [5]) was 9.39% and the Activity (Huh-7 [6]) was 37.41%. It also gave an Activity (Huh-7 [7]) of 47.21%, an Activity (Huh-7 [8]) of 28.14% and an Activity (Huh-7 [9]) of 24.65%. It also gave an Activity (Huh-7 [10]) of 9.25%, an Activity (Huh-7 [11]) of 48.72% and an Activity (Huh-7 [12]) of 42.03%. It also gave a viability at 0.06 µM (Huh-7 [13]) of 91.1%, an Activity (Huh-7 [14]) of 1.05% and an Activity (Huh-7 [15]) of 6.27%. The Activity (Huh-7 [16]) was 1.58%, the viability at 0.09 µM (Huh-7 [17]) was 72.5% and the Activity (Huh-7 [18]) was 4.05%. The Activity (Huh-7 [19]) was 20.1%, the Activity (Huh-7 [20]) was 3.39% and the viability at 0.12 µM (Huh-7 [21]) was 63.5%. The Activity (Huh-7 [22]) was 4.73%, the Activity (Huh-7 [23]) was 29.3% and the Activity (Huh-7 [24]) was 2.45%. For the same compound, the inhibition (Tubulin (Homo sapiens) [25]) was “Active”, the inhibition (Tubulin (Homo sapiens) [26]) was “Dose-Dependent Effect” and the Activity (Tubulin (Homo sapiens) [27]) was “Dose-Dependent Effect”. The Activity (Tubulin (Homo sapiens) [28]) was “Dose-Dependent Effect”, the Activity (Huh-7 [29]) was “Active” and the Activity [30] was “Non-Toxic”. For the same compound, the Activity [31] was “Non-Toxic”, the IC50 (Huh-7 [1]) was 0.03 µM and the IC50 (MCF7) was 0.13 µM.

In the case of `COc1cc(-c2ccnc3ccc(-c4cccc(C)c4)cc23)cc(OC)c1OC`, the IC50 (SGC-7901) is reported as 35 µM, the IC50 (Huh-7 [1]) is reported as 1.32 µM and the IC50 (MCF7) is reported as 17.9 µM.

Compound `COc1ccc(-c2ccc3nccc(-c4cc(OC)c(OC)c(OC)c4)c3c2)cc1OC` has an IC50 (SGC-7901) of 0.88 µM, an IC50 (Huh-7 [1]) of 0.08 µM and an IC50 (MCF7) of 0.96 µM.

With `COc1ccccc1-c1ccc2nccc(-c3cc(OC)c(OC)c(OC)c3)c2c1` the IC50 (SGC-7901) was 17.3 µM, the IC50 (Huh-7 [1]) was 4.69 µM and the IC50 (MCF7) was > 100 µM.
